Results on four molecules are retold here after US8895047B2, “Combined fibrinolytic and antimicrobial catheter and uses thereof” (priority 2007, dated 2014).

The structures appear in SMILES notation.

The target in one experiment is T1, human urokinase enzyme (Homo sapiens, UniProt P00749).
T1 construct: purchased American Diagnostica
In words: uPA activity assay (chromogenic substrate) after incubation with antimicrobial agents. In kind it is biochemical. As to conditions: for Urokinase activity in the presence of antimicrobial agent: concentrations up to 10 μg/mL, 24 hours at 37° C. with 88 units (0.5 μg) uPA in PBS, FIGS. 2 and 3. On the procedure:
To check the compatibility of urokinase (uPA) and chlorhexidine acetate (CHA), human urokinase enzyme (American Diagnostica) at different concentrations (0, 0.05, 0.5, and 1.0 μg/mL) was incubated with CHA at concentrations between 0-10 μg/mL for 24 hours at 37° C. in phosphate buffered saline (PBS). Subsequently, urokinase activity was measured using uPA Activity Assay Kit (Chemicon). Samples were incubated with an assay buffer and a chromogenic substrate for uPA resulting in the formation of a colored complex followed by reading the absorbance on a spectrophotometer at 405 nm. In a 96 well plate, different combinations of chlorhexidine (CHX), gentian violet (GV), minocycline and rifampin were incubated at concentrations of 0, 1, 10 μg/mL, for 24 hours at 37° C., with 88 units (0.5 μg) of uPA in PBS. Urokinase activity was measured using uPA Activity Assay Kit as described earlier.

Another experiment addresses T2, human tPA (Homo sapiens, UniProt P00750).
T2 construct: purchased Sigma
Kind of experiment: tPA activity assay (chromogenic substrate) after incubation with antimicrobial agents. The format is biochemical. As to conditions: concentrations up to 10 μg/mL, overnight at 37° C. with 50 units human tPA; FIGS. 5 and 6. How it is done:
Different combinations of CHX, GV, minocycline and rifampin (0, 1, 10 μg/mL) were incubated overnight with 50 units of human tPA (Sigma) at 37° C., in buffer (30 mM Tris-HCl, 30 mM Imidazole, 130 mM NaCl, 1% protease free albumin). Samples were incubated with the chromogenic substrate (Sigma); tPA activity was determined by the hydrolysis of the substrate being measured continuously at 405 nm for 5 min at 50 seconds intervals. A standard curve was generated and the units plotted against the slope of the hydrolysis reaction.

The next experiment has as its target T3, human streptokinase (Streptococcus dysgalactiae subsp. equisimilis, UniProt P00779).
T3 construct: purchased Sigma
In words: Streptokinase activity assay (S-2251 chromogenic substrate, plasminogen) after incubation with antimicrobial agents. The format is biochemical. The conditions noted are these: any concentration up to 10 μg/mL, overnight at 37° C. with 16.5 units streptokinase; FIG. 7. On the procedure: In a 96 well plate, different combinations of chlorhexidine (0, 1, 10 μg/mL) and gentian violet (0, 1, 10 μg/mL) were incubated overnight with 16.5 units of human streptokinase (Sigma) at 37° C., in 10 mM Tris-HCl buffer containing 0.1M NaCl and 1 mg/mL albumin. Streptokinase activity was measured using a chromogenic substrate S-2251 (Chromogenix). Samples were incubated with 0.6 mM S-2251 and 0.1 U/ml plasminogen (Sigma) for one hour. Hydrolysis of the substrate was measured at 405 nm and a standard curve was generated with the units plotted against the slope of the hydrolysis reaction.

The test system of another experiment is S. epidermidis. In words: Minimum inhibitory concentration of chlorhexidine acetate against S. epidermidis. In kind it is cell-based. How it is done: FIG. 4. Chlorhexidine activity in the presence of urokinase. […] CHA MIC Control=urokinase in tris-buffered saline (TBS)+CHA+Mueller-Hinton broth (MHB); Growth Control=dimethyl sulfoxide (DMSO)+TBS+S. epidermidis+MHB; Negative Control=DMSO+TBS+MHB.
To determine if urokinase affects the antimicrobial efficacy of chlorhexidine, the following experiment was conducted. The minimum inhibitory concentration (MIC) of chlorhexidine acetate (CHA) against S. epidermidis is 0.5 ppm in the absence of urokinase. Absorbance above baseline on the plot in […] indicates growth of microbial organisms (i.e., inability to inhibit microbial growth). An increase in the MIC would be indicative of a reduction in the antimicrobial potency of CHA due to interference by Urokinase.

T2 sequence (P00750 36-562): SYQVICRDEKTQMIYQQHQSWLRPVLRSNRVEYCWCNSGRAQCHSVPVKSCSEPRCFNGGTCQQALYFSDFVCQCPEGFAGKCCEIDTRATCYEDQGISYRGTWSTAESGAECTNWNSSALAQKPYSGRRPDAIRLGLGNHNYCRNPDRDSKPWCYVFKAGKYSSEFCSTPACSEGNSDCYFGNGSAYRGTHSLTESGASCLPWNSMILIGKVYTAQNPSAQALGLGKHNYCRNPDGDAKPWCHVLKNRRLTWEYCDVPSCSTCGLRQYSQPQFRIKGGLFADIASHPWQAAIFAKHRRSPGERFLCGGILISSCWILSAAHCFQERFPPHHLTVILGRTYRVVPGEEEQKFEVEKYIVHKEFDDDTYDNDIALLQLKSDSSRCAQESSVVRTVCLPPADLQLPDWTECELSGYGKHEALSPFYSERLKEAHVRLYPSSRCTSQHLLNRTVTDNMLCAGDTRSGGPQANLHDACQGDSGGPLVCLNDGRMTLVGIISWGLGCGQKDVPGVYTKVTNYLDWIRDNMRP
T3 sequence (P00779 27-440): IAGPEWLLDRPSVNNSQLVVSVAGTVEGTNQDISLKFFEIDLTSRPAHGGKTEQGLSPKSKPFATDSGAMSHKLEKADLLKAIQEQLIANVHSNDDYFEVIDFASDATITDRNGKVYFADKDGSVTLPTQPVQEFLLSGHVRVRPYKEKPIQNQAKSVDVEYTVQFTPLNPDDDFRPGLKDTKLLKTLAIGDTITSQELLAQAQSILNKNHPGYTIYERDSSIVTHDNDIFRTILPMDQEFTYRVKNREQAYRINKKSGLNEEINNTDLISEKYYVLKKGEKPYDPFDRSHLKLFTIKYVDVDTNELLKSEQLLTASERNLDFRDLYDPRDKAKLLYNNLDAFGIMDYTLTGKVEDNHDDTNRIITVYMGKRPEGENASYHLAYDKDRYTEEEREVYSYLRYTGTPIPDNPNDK

On to `[H]/N=C(\N/C(=N/[H])NCCCCCCNC(=N)NC(=N)Nc1ccc(Cl)cc1)Nc1ccc(Cl)cc1` [CHX, chlorhexidine], for which the “Urokinase activity in the presence of antimicrobial agent” value at human urokinase enzyme is listed as “not adversely affected”. The “tPA activity in the presence of antimicrobial agent” value (from here on “tPA activity in the presence”) on human tPA is on record as “not affected”. For the same molecule, the “streptokinase activity in the presence of antimicrobial agent” value at human streptokinase was “unaffected”.
On to `CC(=O)O.CC(=O)O.NC(=N\CCCCCC/N=C(N)/N=C(\N)Nc1ccc(Cl)cc1)/N=C(\N)Nc1ccc(Cl)cc1` [CHA, chlorhexidine acetate], for which the “Urokinase activity in the presence of CHA” value on human urokinase enzyme (CHA 0-10 μg/mL with uPA 0-1.0 μg/mL, 24 hours at 37° C. in PBS, CHA:uPA ratio 0.05 or higher, FIG. 1) was “not affected”. Besides, the “minimum inhibitory concentration (MIC)” value in the experiment on S. epidermidis (in the absence of urokinase) is recorded as 0.5 ppm. Besides, the “MIC in the presence of Urokinase” value in the experiment on S. epidermidis (presence of urokinase, FIG. 4) was “not affected”.
For the molecule `CN(C)c1ccc(C(=C2C=CC(=[N+](C)C)C=C2)c2ccc(N(C)C)cc2)cc1` [GV, gentian violet], the “Urokinase activity in the presence of antimicrobial agent” value at human urokinase enzyme is given as “not adversely affected”. Further, the “tPA activity in the presence” value at human tPA is “not affected”. Besides, on human streptokinase, the “streptokinase activity in the presence of antimicrobial agent” value was “unaffected”.
For `CO[C@H]1/C=C/O[C@@]2(C)Oc3c(C)c(O)c4c(O)c(c(/C=N/N5CCN(C)CC5)c(O)c4c3C2=O)NC(=O)/C(C)=C\C=C\[C@H](C)[C@H](O)[C@@H](C)[C@@H](O)[C@@H](C)[C@H](OC(C)=O)[C@@H]1C` [rifampin], the “Urokinase activity in the presence of antimicrobial agent” value on human urokinase enzyme is listed as “not adversely affected”. For the same molecule, on human tPA, the “tPA activity in the presence” value is “not affected”.
